Source: patent US20120302569A1, “PHENYL-THIAZOLYL INHIBITORS OF PRO-MATRIX METALLOPROTEINASE ACTIVATION” (priority 2011, published 2012)

Legend:
[1] = molecular target: T1, proMMP9 (Homo sapiens, UniProt P14780); assay: Activation of proMMP9 by human fetal lung fibroblast (HFL-1) cultures (Western blot); assay type: cell-based; settings: 3.3 μM Compound α
T1 construct: host or cells: HFL-1 human fetal lung fibroblasts
Method: Activation of proMMP9 by Human Fetal Lung Fibroblast Cultures
Compound α was assessed additionally for ability to block the maturation of proMMP9 to active MMP9 in cultures of human fetal lung fibroblasts (HFL-1, American Type Culture Collection #CCL-153). Unlike rat synoviocytes, HFL-1 cells were unable to process proMMP9 to the active form without addition of neutrophil elastase. […] Rather, the function of elastase in this assay may be to inactivate tissue inhibitors of matrix metalloproteinases (TIMPs) that repress endogenous pathways of MMP9 activation (Am J Respir Crit. Care Med; 1999; 159:1138-46).
HLF-1 were maintained in monolayer culture in DMEM with 10% FCS and were used between passage numbers 5-15. HLF-1 were embedded in collagen gels as described for rat SCW synoviocytes (vida supra). Half mL gels containing 0.4 million cells were dislodged into wells of 12 well Costar plates containing 1 mL/well of DMEM adjusted to contain 0.05% BSA and 100 ng/mL human TNFα (R&D Systems Cat #210-TA/CF). After overnight culture (37° C. and 5% CO2) wells were adjusted to contain an additional 0.5 mL of DMEM containing 0.05% BSA and with or without 13.2 μM Compound α (final concentration was 3.3 μM Compound α). Next, cultures were adjusted to contain 30 nM human elastase (Innovative Research). The plates were cultured an additional 72 hrs, at which time MMP9 secreted into the conditioned media was bound to gelatin-sepharose and evaluated by Western blot analysis as described for the rat synoviocyte cultures (vida supra). mAb-51/82 detected three forms of MMP9 in HFL-1 cultures.
A second experiment was performed to determine if the 80 kD form was mature active MMP9 and to determine the potency of Compound α as an inhibitor of MMP9 maturation in this assay. HFL-1 cells embedded in collagen gels were cultured as described above in the presence of TNFα overnight and the cultures were then adjusted to contain 30 nM elastase and graded concentrations of Compound α for an additional 72 hrs at which time MMP9 secreted into the conditioned media was bound to gelatin-sepharose and evaluated by Western blot analysis for active MMP9 using pAb-1246 raised against the N-terminal neoepitope of active MMP9 (Table 5). In the absence of Compound α, pAb-1246 readily detected MMP9 with an electrophoretic mobility of approximately 80 kD. […] Inhibition occurred over a dose range with an IC50 of approximately 0.3 μM Compound α.

[2] = system: rats with SCW-induced arthritis; assay: Efficacy in rats with SCW arthritis (ankle thickness, clinical scores); assay type: in vivo, rat
From the text: A polyarthritis can be induced in female Lewis rats following i.p. administration of streptococcal cell wall (SCW) proteoglycan-polysaccharides (PG-PS) (J Exp Med 1977; 146:1585-1602). The model has an acute phase (days 3-7) that is complement and neutrophil-dependent and that resolves. A chronic erosive phase begins at about day ten and is dependent on the development of specific T cell immunity to the PG-GS, which resists digestion and remains present in synovial macrophages for months. Like rheumatoid arthritis, SCW-induced arthritis is reduced by TNF inhibitors, and the dependence of SCW-induced arthritis on macrophages (Rheumatology; 2001; 40:978-987) and the strong association of rheumatoid arthritis severity with synovial-tissue macrophage counts (Ann Rheum Dis; 2005; 64:834-838) makes SCW-arthritis an attractive model for testing potential therapeutic agents. SCW PG-PS 10S (Beckton Dickinson Cat#210866) suspended in saline was vortexed for 30 seconds and sonicated for 3 min with a probe type sonicator prior to injection. Female Lewis (LEW/N) rats, 5-6 weeks of age (80-100 g) were injected (i.p.) with SCW PG-PS (15 μg of rhamnose/gram BW) in the lower left quadrant of the abdomen using a 1 mL syringe fitted with a 23-gauge needle. Control (disease-free) rats were treated in a similar manner with sterile saline. Control rats were sacrificed on day 5 and groups of SCW-injected rats were sacrificed on day 5 when acute inflammation was maximal or on day 18 when chronic inflammation was established.
To induce arthritis, Female Lewis (LEW/N) rats, 5-6 weeks of age (80-100 g) were injected (i.p.) with SCW PG-PS as described above. Eighteen days later, arthritis was well established. Calipers were used to measure the width (anterior to posterior surface) of the left and right hind ankles of each rat. Each ankle was measured 3 times and averaged, and treatment groups were randomized based on ankle thickness (Table 6). Commencing on day 18, randomized groups of arthritic rats (n=5 rats/group) received vehicle or 5, 20, or 50 mg/kg Compound α BID by oral gavage. Vehicle consisted of an aqueous mixture containing 2% (v:v) N-methylpyrrolidone, 5% (v:v) glycerine, and 20% (w:v) captisol. Treatment continued daily through the morning of day 26.
Hind paw inflammation clinical scores were assigned based on swelling and erythema.

[3] = molecular target: T2, MMP9 (Rattus norvegicus, UniProt P50282); assay: Active MMP9 in ankles of rats with SCW-induced arthritis by Western blot; assay type: in vivo; settings: day 26, four hours after AM dose; FIG. 3A lanes 4-9
T2 construct: Pro and active MMP9 were abundantly present in ankles of SCW-induced vehicle-treated rats; from tissue; host or cells: tibia-tarsus joints (ankles) of female Lewis rats
Method: Hind-limbs were skinned, severed just above the tibia-tarsus joint and below the metatarsals, and the tibia-tarsus joints (ankles) were weighed, snap frozen and pulverized on dry ice using a hammer and anvil. The pulverized tissue was suspended in 3 volumes (w:v) of ice-cold homogenization buffer containing 50 mM Tris pH 7.5, 150 mM NaCl, 5 mM EDTA, 1% Triton X100, 0.05% Brij 30, 10% dimethylsulfoxide and Complete EDTA-free Protease Inhibitor Cocktail (Roche Diagnostics). The suspended tissue was homogenized sequentially with a Kinematica AG Polytron and a Dounce homogenizer. Homogenates were centrifuged at 16,000×g for 10 min at 4° C. and the soluble fractions were saved. Dimethylsulfoxide was removed from a portion of each soluble fraction using PD MiniTrap™ G-25 desalting columns (GE Healthcare). Homogenates (0.25 mL), free of DMSO, were diluted with an equal volume of binding buffer (i.e., homogenization buffer without dimethylsufoxide) and adjusted to contain 50 μL of a 50% slurry of gelatin-conjugated sepharose. Following 2 hours of rotation at 4° C. the beads were washed twice in binding buffer and eluted in 100 μL 2×-reducing Laemmli buffer with heating to 95° C. for 5 minutes. […]

T1 sequence (P14780 20-707 limits assumed): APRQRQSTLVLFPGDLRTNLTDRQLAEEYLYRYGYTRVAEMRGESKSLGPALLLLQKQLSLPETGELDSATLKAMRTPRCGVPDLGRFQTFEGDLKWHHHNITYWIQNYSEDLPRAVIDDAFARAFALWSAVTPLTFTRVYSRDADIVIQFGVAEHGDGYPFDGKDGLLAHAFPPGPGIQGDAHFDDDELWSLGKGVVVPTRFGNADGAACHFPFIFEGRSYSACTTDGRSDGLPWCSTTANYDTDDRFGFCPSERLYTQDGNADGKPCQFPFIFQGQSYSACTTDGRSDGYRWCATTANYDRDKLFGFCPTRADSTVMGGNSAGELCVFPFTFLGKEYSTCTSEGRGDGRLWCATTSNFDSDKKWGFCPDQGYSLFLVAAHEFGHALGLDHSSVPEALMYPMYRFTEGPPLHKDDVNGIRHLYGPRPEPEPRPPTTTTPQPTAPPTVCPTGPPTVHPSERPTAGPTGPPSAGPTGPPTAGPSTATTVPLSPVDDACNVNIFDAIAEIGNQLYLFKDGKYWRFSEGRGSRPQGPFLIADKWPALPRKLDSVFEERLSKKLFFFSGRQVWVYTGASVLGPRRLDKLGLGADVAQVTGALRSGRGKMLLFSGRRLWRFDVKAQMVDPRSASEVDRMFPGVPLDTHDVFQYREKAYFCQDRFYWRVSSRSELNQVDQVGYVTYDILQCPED
T2 sequence (P50282 108-708): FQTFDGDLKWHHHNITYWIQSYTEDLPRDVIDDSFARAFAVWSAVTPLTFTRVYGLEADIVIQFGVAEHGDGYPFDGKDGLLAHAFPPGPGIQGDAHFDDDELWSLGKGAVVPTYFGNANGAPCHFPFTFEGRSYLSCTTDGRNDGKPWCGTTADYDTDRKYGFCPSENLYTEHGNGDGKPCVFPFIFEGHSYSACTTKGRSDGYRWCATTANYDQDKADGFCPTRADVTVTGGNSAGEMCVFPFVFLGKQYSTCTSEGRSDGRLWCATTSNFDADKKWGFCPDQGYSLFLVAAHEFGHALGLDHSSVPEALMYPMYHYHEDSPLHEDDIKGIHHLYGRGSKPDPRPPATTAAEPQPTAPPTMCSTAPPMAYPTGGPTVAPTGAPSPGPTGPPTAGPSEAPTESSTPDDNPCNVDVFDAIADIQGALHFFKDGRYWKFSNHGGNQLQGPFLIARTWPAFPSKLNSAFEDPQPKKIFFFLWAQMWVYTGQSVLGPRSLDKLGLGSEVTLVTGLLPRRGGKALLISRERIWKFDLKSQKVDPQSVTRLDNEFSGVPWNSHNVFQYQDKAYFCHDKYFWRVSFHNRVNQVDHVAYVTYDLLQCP

In the case of `Cc1nc(C)c(-c2csc(Nc3cc(S(N)(=O)=O)ccc3OC(C)C)n2)s1` [Compound α, 3-(2′,4′-Dimethyl-[4,5′]bithiazolyl-2-ylamino)-4-isopropoxy-benzenesulfonamide.HBr], the “Percent of total signal 80 kD” value [1] is reported as 7%, the “Percent of total signal 86 kD” value [1] is reported as 47% and the “Percent of total signal 100 kD” value [1] is reported as 46%. The “Signal Total” value ([1]; 30 nM elastase, 72 hrs, mAb-L51/82) was 91346 INT*mm^2, the ankle thickness measurements ([2]; 5, 20, 50 mg/kg BID oral, Day 18-26) was “dose-dependent decrease” and the clinical score measurements ([2]; 5, 20, 50 mg/kg BID oral, significant effects emerging at 20 mg/kg) was “dose dependent decrease”. The inhibition at 5 mg/kg ([2]; Rattus norvegicus, 5 mg/kg BID oral, Day 18-26, read-out: Day 26 % Inh of disease associated increase in ankle thickness) was 27%, the inhibition at 20 mg/kg ([2]; Rattus norvegicus, 20 mg/kg BID oral, Day 18-26, read-out: Day 26 % Inh of disease associated increase in ankle thickness) was 37% and the inhibition at 50 mg/kg ([2]; Rattus norvegicus, 50 mg/kg BID oral, Day 18-26, read-out: Day 26 % Inh of disease associated increase in ankle thickness) was 46%. The “abundance of proMMP9 in ankles” value [3] was “did not reduce”.
